Assay results from paper PMC3068151 (PLoS ONE, 2011).

Legend:
EphA kinases = experiment: ELISA displacement of biotinylated ephrinA1-Fc from immobilized EphA-Fc ectodomains; assay type: binding; settings: biotinylated ephrinA1-Fc at KD concentration
Description: Our chemical collection (Table S1) was stocked in a 20 mM dimethyl sulfoxide (DMSO) solution and we performed binding assay at a concentration of 200 µM. Only compounds displacing more than 40% ephrinA1 from EphA2 receptor were considered for a full concentration-binding curve. […] The day after wells were washed three times with washing buffer (PBS +0.05% tween20, pH 7.5) and blocked with 300 µl of blocking solution (PBS +0.5% BSA) for 1 hour at 37°C. Compounds were added to the wells at proper concentration in 1% dimethyl sulfoxide (DMSO) and incubated at 37°C for 1 hour. Biotinylated ephrinA1-Fc (R&D BT602) was added at 37°C for 4 hours at 30 ng/ml in displacement assays or in a range from 1 to 2000 ng/ml in saturation studies. […] The reaction was stopped with 3N HCl 100 µl/well and the absorbance was measured using an ELISA plate reader (Sunrise, TECAN, Switzerland) at 450 nm.
Data are the means of at least three independent experiments ± st. err.

EGFR = EGFR (Homo sapiens, UniProt P00533); experiment: Phosphorylated-EGFR sandwich ELISA in HT29 cells; assay type: cell-based; settings: 100 µM, 10 ng/ml EGF
Description: (§1) Cells were seeded in 12-well plates at concentration of 10^5cells/ml in complete medium until they reached ∼40% confluence and serum starved overnight. The day after cells were treated with compounds under study, vehicle or standard drug, stimulated with the proper agonist, rinsed with sterile PBS and solubilized in lysis buffer. The lysates were resuspended and rocked at 4°C for 30 minutes and then centrifuged at 14000 xg for 5 minutes. The protein content of supernatant was measured with BCA protein assay kit (Thermo scientific), standardized to 200 µg/ml and transferred into a clean test tube ready to be used.
(§2) EphA2-, EphB4- and EGFR-phosphorylation were measured in cell lysates using DuoSet®IC Sandwich ELISA (RnD Systems, #DYC4056, #DYC4057 and #DYC1095, respectively) following manufacturer's protocol. […] The day after wells were washed and blocked for 1 hour at room temperature. After that, wells were washed and 100 µl/well of lysates were added at room temperature for 2 hours; wells were washed and incubated with Detection Antibody at room temperature for 2 hours.
(§3) A, B) EGFR phosphorylation was induced by 30 ng/ml and 10 ng/ml EGF on PC3 (A) and HT29 (B) cells, respectively. […] Data are the means of two experiments ± st. err.

VEGFR = VEGFR activity, cellular dielectric spectroscopy in HUVE cells; assay type: cell-based; settings: 100 µM, 0.1 nM VEGF
Description: Impedance measurement was monitored for 10 minutes. VEGF receptor tyrosine kinase inhibitor II (Calbiochem-Merck, Darmstadt, Germany) was used as a standard reference.
(§4) These assays were performed at CEREP (Celle L'Evescault, France).
as §3

IRKβ = molecular target: T1, IRKβ (Homo sapiens, UniProt P06213); experiment: IRKβ activity, alpha Technology; assay type: cell-based; settings: 100 µM, 100 nM insulin
T1 construct: in HepG2 or A431 cells, respectively; endogenous in cells; host or cells: HepG2 according to b24; A431 according to the order in the legend b55
Description: Cells were stimulated with 5 nM IGF1 or 100 nM insulin for 10 minutes, lysed and a fluorescence acceptor (alphaLISA protein A beads coated with anti-phospho-IRKβ or -IGFR1β) added for 2 hours. A fluorescence donor (streptavidin coupled-beads) coated with an antibody towards IRKβ or IGFR1β was incubated for 2 hours and the signal was measured at λex = 680 nm and λem = 500 nm and 600 nm using a microplate reader (EnVision, Perkin Elmer, Waltham, MA, USA).
as §4, §3

PC3, HT29 and T47D cells = experiment: MTT cell viability assay; assay type: cell-based, human; settings: concentrations studied in phosphorylation studies; 2 hours incubation
Description: Cell viability was evaluated using the MTT colorimetric assay. Cells were plated in 96-well plates at a density of 10^5cells/ml and the day after treated with compounds or 0.5% DMSO for 2, 24, 48, or 72 hours. MTT was added at the final concentration of 1 mg/ml and incubated for 2 hours. The resulting formazan crystals were washed with PBS 100 µl/well and then solubilized with DMSO 200 µl/well. The absorbance was measured at 550 nm using an ELISA plate reader and the results were expressed as the ratio between absorbance of the cell treated with the compounds and untreated cells.
Supplementary file pone.0018128.s003.pdf: Figure S2 Cytotoxicity of bile acids on PC3, HT29 and T47D cells after 2 hours of incubation with the indicated compounds. Data are means±SEM. (PDF) Click here for additional data file.

PC3 cells = experiment: PC3 cell rounding assay; assay type: cell-based, human; settings: for inhibition of ephrinA1-Fc induced PC3 cell rounding: 0.5 µg/ml ephrinA1-Fc, 30 minutes
Description: PC3 cells were grown on 12-well culture plates and starved overnight in Ham-F12 medium with 0.5% FBS. DMSO (final concentration 0.25%) or compounds were incubated for 20 min, before stimulation with 0.5 µg/ml ephrinA1-Fc or Fc for 30 minutes. During this time cells were observed and pictures were taken from the same field, before and after incubation, under a microscope (Leica, DM IL). Cell rounding was evaluated using ImageJ program.
Cell images were collected from the same field at time 0 and 30 minutes using a digital camera mounted on a Leica DM IL microscope. […] Cells, which rounded their shape and having an area less than 20% of the initial value, were scored as retracting. Data are the means of at least three independent experiments ± st. err. One-way ANOVA followed by Dunnet's post test was performed comparing ephrinA1-Fc+DMSO to all other columns. *, p<0.05, **,p<0.01.

EphA2 = EphA2 (Homo sapiens, UniProt P29317); experiment: Phosphorylated-EphA2 sandwich ELISA in PC3 cell lysates; assay type: cell-based; parameters: their known ability to naturally express EphA2; endogenous in cells; host or cells: PC3 (A5); settings: PC3 cells
Description: as §1, §2
EphB4 phosphorylation was stimulated with 3 µg/ml ephrinB2-Fc, preclustered with 0.3 µg/ml IgG Fc fragment on T47D cells (G, H, I). […] Phospho-EphA2/B4 levels are relative to ephrinA1/B2-Fc+DMSO. Data are the means of at least three independent experiment ± st. err. One-way ANOVA followed by Dunnet's post test was performed comparing Fc to all other columns for Fig A, D, G and ephrinA1-Fc+DMSO to all other columns for Fig B,C,E, F, H, I. *, p<0.05, **, p<0.01.

EphA2, sequence (P29317 24-976): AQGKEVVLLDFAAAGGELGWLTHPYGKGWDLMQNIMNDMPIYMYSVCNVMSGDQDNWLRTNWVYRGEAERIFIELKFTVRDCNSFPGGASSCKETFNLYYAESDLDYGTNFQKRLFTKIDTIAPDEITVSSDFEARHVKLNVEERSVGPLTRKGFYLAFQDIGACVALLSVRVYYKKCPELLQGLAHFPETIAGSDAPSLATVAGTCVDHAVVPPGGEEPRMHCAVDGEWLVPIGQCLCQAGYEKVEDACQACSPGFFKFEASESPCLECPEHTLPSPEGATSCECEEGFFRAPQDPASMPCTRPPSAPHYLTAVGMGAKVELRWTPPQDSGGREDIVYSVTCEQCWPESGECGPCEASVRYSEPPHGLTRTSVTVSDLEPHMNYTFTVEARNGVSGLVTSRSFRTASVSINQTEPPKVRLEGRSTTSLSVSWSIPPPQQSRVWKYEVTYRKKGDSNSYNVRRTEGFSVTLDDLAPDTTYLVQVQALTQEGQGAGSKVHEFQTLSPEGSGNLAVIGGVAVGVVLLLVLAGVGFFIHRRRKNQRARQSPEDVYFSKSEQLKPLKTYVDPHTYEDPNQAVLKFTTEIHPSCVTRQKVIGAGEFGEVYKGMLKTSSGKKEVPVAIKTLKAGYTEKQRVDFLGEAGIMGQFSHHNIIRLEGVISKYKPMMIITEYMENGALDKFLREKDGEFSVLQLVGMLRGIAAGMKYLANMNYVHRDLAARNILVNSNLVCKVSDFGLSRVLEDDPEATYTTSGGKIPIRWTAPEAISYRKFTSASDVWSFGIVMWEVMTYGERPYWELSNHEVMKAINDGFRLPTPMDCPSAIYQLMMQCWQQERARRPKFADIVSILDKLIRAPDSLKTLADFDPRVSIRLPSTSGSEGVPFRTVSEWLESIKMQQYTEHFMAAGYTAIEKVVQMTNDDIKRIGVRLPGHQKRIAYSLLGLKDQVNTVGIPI
T1 sequence (P06213 763-1382 limits assumed): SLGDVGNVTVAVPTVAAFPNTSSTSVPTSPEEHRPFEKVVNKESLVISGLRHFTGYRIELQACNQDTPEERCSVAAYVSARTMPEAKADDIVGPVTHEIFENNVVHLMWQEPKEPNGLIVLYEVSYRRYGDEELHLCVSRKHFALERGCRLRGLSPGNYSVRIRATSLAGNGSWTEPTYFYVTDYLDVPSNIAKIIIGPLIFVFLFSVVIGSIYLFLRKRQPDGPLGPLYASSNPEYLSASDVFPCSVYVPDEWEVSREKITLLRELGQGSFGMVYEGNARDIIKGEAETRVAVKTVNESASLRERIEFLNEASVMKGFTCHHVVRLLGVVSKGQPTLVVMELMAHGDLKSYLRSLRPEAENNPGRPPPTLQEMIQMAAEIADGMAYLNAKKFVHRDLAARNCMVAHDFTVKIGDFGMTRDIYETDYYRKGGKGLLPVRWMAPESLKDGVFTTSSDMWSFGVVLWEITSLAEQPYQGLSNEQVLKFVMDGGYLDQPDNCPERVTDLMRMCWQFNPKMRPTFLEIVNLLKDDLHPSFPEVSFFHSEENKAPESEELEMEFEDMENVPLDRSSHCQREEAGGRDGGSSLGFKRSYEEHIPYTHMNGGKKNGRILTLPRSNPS
T1 sequence (P06213 28-758 partner limits assumed): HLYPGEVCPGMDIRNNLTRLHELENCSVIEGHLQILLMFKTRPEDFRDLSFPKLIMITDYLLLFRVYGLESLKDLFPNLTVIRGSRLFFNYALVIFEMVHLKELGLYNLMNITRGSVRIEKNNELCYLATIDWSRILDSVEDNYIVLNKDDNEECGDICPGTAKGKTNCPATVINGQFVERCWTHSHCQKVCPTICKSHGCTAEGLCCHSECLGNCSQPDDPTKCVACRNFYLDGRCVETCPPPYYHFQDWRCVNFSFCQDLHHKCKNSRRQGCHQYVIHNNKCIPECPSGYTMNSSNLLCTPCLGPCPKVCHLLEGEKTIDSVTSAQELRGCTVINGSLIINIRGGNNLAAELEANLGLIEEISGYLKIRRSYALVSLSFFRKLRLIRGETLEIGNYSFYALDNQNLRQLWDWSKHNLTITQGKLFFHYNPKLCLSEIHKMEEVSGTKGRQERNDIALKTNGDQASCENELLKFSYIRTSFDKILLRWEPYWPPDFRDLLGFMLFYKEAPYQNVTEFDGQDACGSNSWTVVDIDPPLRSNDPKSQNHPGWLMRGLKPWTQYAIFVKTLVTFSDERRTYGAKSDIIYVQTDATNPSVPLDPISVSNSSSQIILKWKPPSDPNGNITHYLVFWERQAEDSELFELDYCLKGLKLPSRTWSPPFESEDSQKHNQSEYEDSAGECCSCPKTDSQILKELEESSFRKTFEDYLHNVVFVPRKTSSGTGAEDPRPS
EGFR, sequence (P00533 25-1210): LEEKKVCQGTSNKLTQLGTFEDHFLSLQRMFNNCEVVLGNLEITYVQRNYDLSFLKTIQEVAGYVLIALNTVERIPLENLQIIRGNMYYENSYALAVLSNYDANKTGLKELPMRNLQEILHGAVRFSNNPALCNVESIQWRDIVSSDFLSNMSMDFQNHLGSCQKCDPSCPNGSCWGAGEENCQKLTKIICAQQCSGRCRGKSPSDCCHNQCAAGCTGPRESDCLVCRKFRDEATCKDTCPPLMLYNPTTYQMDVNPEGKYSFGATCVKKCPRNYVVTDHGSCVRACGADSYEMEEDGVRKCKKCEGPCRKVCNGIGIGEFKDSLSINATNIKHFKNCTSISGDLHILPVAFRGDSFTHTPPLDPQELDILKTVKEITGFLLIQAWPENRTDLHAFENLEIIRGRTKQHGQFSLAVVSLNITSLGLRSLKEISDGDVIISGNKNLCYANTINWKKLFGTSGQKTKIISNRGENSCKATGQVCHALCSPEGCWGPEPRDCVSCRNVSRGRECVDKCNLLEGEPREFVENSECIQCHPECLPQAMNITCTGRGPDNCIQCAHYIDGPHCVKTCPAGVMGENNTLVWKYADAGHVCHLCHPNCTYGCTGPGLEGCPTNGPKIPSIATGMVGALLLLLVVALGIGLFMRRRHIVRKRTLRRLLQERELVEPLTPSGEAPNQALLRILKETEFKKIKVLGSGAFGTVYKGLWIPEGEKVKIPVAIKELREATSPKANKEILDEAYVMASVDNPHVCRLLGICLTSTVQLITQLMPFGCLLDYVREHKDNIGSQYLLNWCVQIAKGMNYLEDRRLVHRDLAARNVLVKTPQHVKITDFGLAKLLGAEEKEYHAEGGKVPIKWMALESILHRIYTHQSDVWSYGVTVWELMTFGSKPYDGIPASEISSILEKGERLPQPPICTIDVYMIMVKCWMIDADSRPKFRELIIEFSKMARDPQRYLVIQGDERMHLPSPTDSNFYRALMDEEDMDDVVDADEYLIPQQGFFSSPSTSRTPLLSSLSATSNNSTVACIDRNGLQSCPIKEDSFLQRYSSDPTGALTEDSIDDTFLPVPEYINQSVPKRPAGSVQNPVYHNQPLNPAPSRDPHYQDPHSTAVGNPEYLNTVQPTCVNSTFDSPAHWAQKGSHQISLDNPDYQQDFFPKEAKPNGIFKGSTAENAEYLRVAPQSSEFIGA

Structure (SMILES): C[C@H](CCC(=O)O)[C@H]1CC[C@H]2[C@@H]3CC[C@@H]4C[C@H](O)CC[C@]4(C)[C@H]3CC[C@]12C [LCA, lithocholic acid]
- displacement of ephrin-A1-Fc ectodomain from immobilized EphA-Fc ectodomains (EphA kinases): dose-dependently displaced
- effect on EGF-induced EGFR phosphorylation (EGFR): completely inactive
- effect on VEGFR activity as agonist or antagonist (VEGFR): failed to affect activity
- effect on IRKβ activity as agonist or antagonist (IRKβ): failed to affect activity
- toxicity (MTT) (PC3, HT29 and T47D cells): devoid of any toxicity
- inhibition of ephrinA1-Fc induced PC3 cell rounding (PC3 cells; 10 µM): inactive
- inhibition of ephrinA1-Fc induced PC3 cell rounding (PC3 cells; 100 µM): blocked cell rounding
- changes in PC3 cell morphology by compound alone (PC3 cells; incubated with Fc for 30 minutes): Neither DMSO 0.25% nor LCA alone induced changes in cell morphology
- inhibition of EphA2 phosphorylation (EphA2; 10 µM): subthreshold
- inhibition of EphA2 phosphorylation (EphA2; 100 µM): inhibiting completely
